These results are taken from ChEMBL document CHEMBL5523736, “The First Discovery of Marine Polyoxygenated Cembranolides as Potential Agents for the Treatment of Ulcerative Colitis” (J Med Chem, 2024).

Data set [1] concerns RAW264.7. As to the kind of experiment: Antiinflammatory activity in mouse RAW264.7 cells assessed as inhibition of LPS-induced NO production at 20 uM incubated for 24 hrs relative to control. Format: functional.
The nature of data set [2]: Cytotoxicity against mouse RAW264.7 cells assessed as cell viability at 20 uM incubated for 24 hrs by CCK8 assay relative to control. Format: toxicity, cell-based. The settings on record: read-out: Activity. (Tetrazolium dyes change colour on reduction, which living cells bring about.)
The test system of data set [3] is RAW264.7. The data set is described as follows: Antiinflammatory activity in LPS-induced mouse RAW264.7 cells assessed as reduction in IL-1beta mRNA expression level at 20 uM by qRT-PCR analysis. Format: functional, cell-based.
Data set [4] has as its system RAW264.7. The data set is described as follows: Antiinflammatory activity in LPS-induced mouse RAW264.7 cells assessed as reduction in iNOS mRNA expression level at 20 uM by qRT-PCR analysis. Format: functional, cell-based. A general note: Real-time PCR tracks product formation cycle by cycle.
Data set [5] concerns RAW264.7. The data set is described as follows: Antiinflammatory activity in LPS-induced mouse RAW264.7 cells assessed as reduction in IL-6 mRNA expression level at 20 uM by qRT-PCR analysis. Format: functional, cell-based.
For data set [6], the system named is RAW264.7. As to the kind of experiment: Antiinflammatory activity in mouse RAW264.7 cells assessed as inhibition of LPS-induced NO production incubated for 24 hrs. Format: functional, cell-based. The settings on record: RAW264.7, 24 h.
Data set [7] has as its system RAW264.7. As to the kind of experiment: Antiinflammatory activity in LPS-induced mouse RAW264.7 cells assessed as reduction in TNF-alpha mRNA expression level at 20 uM by qRT-PCR analysis. Format: functional, cell-based.

The structures appear in SMILES notation. Calls of active or inactive are those of the source. No cut-off for these calls is given here.

A word on the inhibition: it is the drop in the measured response relative to a control, in per cent. By IC50 is commonly meant the midpoint of a concentration-inhibition curve. For the molecule `C=C1C(=O)O[C@]2(C)CC[C@@H]1C[C@@H]1O[C@@]1(C)CC[C@@H]1O[C@]1(C)CC[C@H]2OC(C)=O`, in data set [1], the inhibition at 20 µM amounted to 141%. In addition, the viability at 24 h, 20 µM in data set [2] was found to be 92.7%. Moreover, the outcome in data set [3], in data set [4], in data set [5] and in data set [7] was Active. For the same molecule, the IC50 in data set [6] is 1.59 µM.

With `C=C(C(=O)OC)[C@@H]1CC[C@@](C)(O)[C@@H](OC(C)=O)CC/C(C)=C/C/C=C(\C)[C@H](O)C1`, in data set [1], the inhibition at 20 µM was 55.7%. Besides, the viability at 24 h, 20 µM in data set [2] was 89.2%.

For `C=C(C(=O)OC)[C@@H]1CC[C@@](C)(O)C(=O)CC[C@](C)(O)/C=C/C[C@]2(C)O[C@H]2C1`, in data set [1], the inhibition at 20 µM was found to be 29.1%. Also, the viability at 24 h, 20 µM in data set [2] was found to be 98.1%.

`C=C(C(=O)OC)[C@@H]1CC[C@]2(C)O[C@@]2(O)CC/C(C)=C/CC[C@]2(C)O[C@@H]2C1`: the inhibition at 20 µM in data set [1] came to 0%. For the same molecule, the viability at 24 h, 20 µM in data set [2] was 94%.

Consider `C=C1C(=O)O[C@]2(C)CC[C@@H]1C[C@@H]1O[C@@]1(C)C/C=C/[C@@](C)(OO)CCC2=O`, for which the inhibition at 20 µM in data set [1] is 48.7%. Moreover, the viability at 24 h, 20 µM in data set [2] worked out at 93.7%.

Regarding `C=C1C(=O)O[C@]2(C)CC[C@@H]1C[C@H](O)[C@@]1(C)CC[C@H](O1)C(=C)CCC2=O`, in data set [1], the inhibition at 20 µM was determined as 34%. Also, the viability at 24 h, 20 µM in data set [2] worked out at 89.5%.

For `C=C1C(=O)O[C@]2(C)CC[C@@H]1C[C@@H]1O[C@@]1(C)CC/C=C(\C)CC[C@H]2O`, the inhibition at 20 µM in data set [1] amounted to 86.7%. Also, in data set [2], the viability at 24 h, 20 µM came to 92.8%. Also, the IC50 in data set [6] was 13.1 µM.

Consider `C=C1C(=O)O[C@]2(C)CC[C@@H]1C[C@H](O)[C@@]1(C)CC[C@H](O1)[C@](C)(O)CCC2=O`, for which the inhibition at 20 µM in data set [1] came out at 43%. Besides, the viability at 24 h, 20 µM in data set [2] stood at 102%.

As to `C=C1C(=O)O[C@]2(C)CC[C@@H]1C[C@@H]1O[C@@]1(C)C/C=C/[C@@](C)(O)CC[C@H]2OC(C)=O`, the inhibition at 20 µM in data set [1] is 99.5%. Also, the viability at 24 h, 20 µM in data set [2] is 87.9%. For the same molecule, the IC50 in data set [6] is 10.1 µM.

For `C=C1C(=O)O[C@]2(C)CC[C@@H]1C[C@H](O)[C@@]1(C)CC[C@H](O1)C(=C)CC[C@H]2O`, the inhibition at 20 µM in data set [1] was 39%. The viability at 24 h, 20 µM in data set [2] turned out to be 89%.

For `C=C1C(=O)O[C@]2(C)CC[C@@H]1C[C@H](O)[C@@]1(C)CC[C@H](O1)[C@](C)(O)CC[C@H]2OC(C)=O` [QUERCIFORMOLIDE B], in data set [1], the inhibition at 20 µM stood at 16.3%. Also, in data set [2], the viability at 24 h, 20 µM is 103%.

For `C=C1CO[C@]2(C)CC[C@@H]1C[C@]1(O)O[C@@]1(C)CC/C=C(\C)CC[C@@H]2O`, the inhibition at 20 µM in data set [1] is -146%. Also, in data set [2], the viability at 24 h, 20 µM was found to be 82.3%.

As to `C=C1C(=O)O[C@]2(C)CC[C@@H]1C[C@H](OC(C)=O)[C@@]1(C)CC[C@H](O1)[C@](C)(O)CC[C@H]2O`, the inhibition at 20 µM in data set [1] came out at 25.8%. For the same molecule, the viability at 24 h, 20 µM in data set [2] stood at 109%.

As for `C=C1C(=O)O[C@]2(C)CC[C@@H]1C[C@H](O)[C@@]1(C)CC/C=C(/CCC2=O)COO1`, the inhibition at 20 µM in data set [1] was 34.4%. Also, in data set [2], the viability at 24 h, 20 µM was determined as 94.5%.

In the case of `C=C1C(=O)O[C@]2(C)CC[C@@H]1C[C@@H]1O[C@@]1(C)CC[C@H](O)[C@](C)(O)CCC2=O`, the inhibition at 20 µM in data set [1] amounted to 90%. In addition, the viability at 24 h, 20 µM in data set [2] was 89%. For the same molecule, the result in data set [3], in data set [4], in data set [5] and in data set [7] was Active. The IC50 in data set [6] came to 1.98 µM.

Regarding `C=C1C(=O)O[C@]2(C)CC[C@@H]1C[C@H](O)[C@@]1(C)CC[C@H](OC(C)=O)[C@@](C)(CCC2=O)O1` [QUERCIFORMOLIDE A], the inhibition at 20 µM in data set [1] amounted to 85.1%. Further, in data set [2], the viability at 24 h, 20 µM came to 94.1%. In addition, the IC50 in data set [6] amounted to 9.48 µM.

For the molecule `C=C1C(=O)O[C@]2(C)CC[C@@H]1C/C=C(\C)CC/C=C(\C)CC[C@@H]2O`, the inhibition at 20 µM in data set [1] was 93.1%. Moreover, in data set [2], the viability at 24 h, 20 µM was determined as 93.7%. In data set [6], the IC50 was 12.7 µM.

In the case of `C=C1C(=O)O[C@]2(C)CC[C@@H]1C[C@H](O)[C@@]1(C)CC[C@H](O1)C(=C)CC[C@H]2OC(C)=O` [GRANOSOLIDE A], the inhibition at 20 µM in data set [1] is 31%. Also, the viability at 24 h, 20 µM in data set [2] turned out to be 88.7%.

On to `C=C(C(=O)OC)[C@@H]1CC[C@@](C)(O)[C@@H]2CC[C@@](C)(O2)[C@@H](OC(C)=O)CC[C@]2(C)O[C@H]2C1` [DENDRONPHOLIDE G], for which the inhibition at 20 µM in data set [1] was -49%. Further, in data set [2], the viability at 24 h, 20 µM came to 83%.

`C=C1C(=O)O[C@]2(C)CC[C@@H]1C[C@@H]1O[C@@]1(C)CC[C@H](OC(C)=O)[C@@]1(C)CC[C@@H]2O1`: the inhibition at 20 µM in data set [1] came to 36.7%. In addition, the viability at 24 h, 20 µM in data set [2] worked out at 103%.

On to `C=C1C(=O)O[C@]2(C)CC[C@@H]1C[C@H](OC(C)=O)[C@@]1(C)CC[C@H](O1)C(=C)CC[C@H]2OC(C)=O` [GRANOSOLIDE B], for which the inhibition at 20 µM in data set [1] was 56%. Moreover, the viability at 24 h, 20 µM in data set [2] was determined as 102%.

Regarding `CNC(=N)NCCC[C@H](N)C(=O)O` [TILARGININE], the inhibition at 20 µM in data set [1] was determined as 27.4%. For the same molecule, the viability at 24 h, 20 µM in data set [2] amounted to 92.7%. For the same molecule, the IC50 in data set [6] is 31.7 µM.

With `C=C(C(=O)OC)[C@@H]1CC[C@@](C)(O)[C@@H](OC(C)=O)CC/C(C)=C/CC[C@]2(C)O[C@H]2C1`, in data set [1], the inhibition at 20 µM is -4.67%. Also, the viability at 24 h, 20 µM in data set [2] was determined as 104%.

In the case of `C=C1C(=O)O[C@]2(C)CC[C@@H]1C[C@H]1O[C@@]1(C)C/C=C/[C@](C)(OO)CC[C@H]2O`, the inhibition at 20 µM in data set [1] came to 124%. Besides, the viability at 24 h, 20 µM in data set [2] is 108%. The outcome in data set [3], in data set [4], in data set [5] and in data set [7] was Active. Moreover, the IC50 in data set [6] came out at 0.84 µM.

Take `C=C(C(=O)OC)[C@@H]1CC[C@]2(C)O[C@H]2CC[C@](C)(OO)/C=C/C[C@]2(C)O[C@@H]2C1`: the inhibition at 20 µM in data set [1] was found to be 35.4%. In addition, the viability at 24 h, 20 µM in data set [2] is 87.4%.

Turning to `C=C(C(=O)OC)[C@@H]1C/C=C(/C)[C@@H](O)CC/C(C)=C/CC[C@]2(C)O[C@H]2C1`, the inhibition at 20 µM in data set [1] was 79.3%. Further, in data set [2], the viability at 24 h, 20 µM is 93.7%.

Turning to `C=C(C(=O)OC)[C@@H]1CC[C@@]2(C)O[C@@H]2CC[C@](C)(O)/C=C/C[C@]2(C)O[C@H]2C1`, the inhibition at 20 µM in data set [1] came out at 31.1%. Further, in data set [2], the viability at 24 h, 20 µM worked out at 108%.

In the case of `C=C(C(=O)OC)[C@@H]1CC[C@@](C)(O)C(=O)CC/C(C)=C/CC[C@]2(C)O[C@H]2C1`, the inhibition at 20 µM in data set [1] was found to be 35.7%. Besides, the viability at 24 h, 20 µM in data set [2] is 116%.

Turning to `C=C1C(=O)O[C@]2(C)CC[C@@H]1C[C@@H]1O[C@@]1(C)CC/C=C(\C)CC[C@@H]2O` [SINULARIOLIDE], the inhibition at 20 µM in data set [1] was found to be 108%. Besides, the viability at 24 h, 20 µM in data set [2] was 83.3%. Further, the outcome in data set [3], in data set [4], in data set [5] and in data set [7] was Active. In addition, in data set [6], the IC50 came out at 3.61 µM.
